Measurements taken from US20050008653A1, “Stabilizing molecule” (Medical Research Council, priority 2001, published 2005).
Several values for one entry are separate records, joined by “and”; a condition that tells them apart may be missing. Equal values may be shown once. Read-outs that look alike come from different tables or passages of the source. One block for each compound: values may come before it.

Assays:
Saos-2-His273 cells = assay: Dead cells by trypan blue exclusion; type: cell-based; details: 10 μg/mL peptide, 24 h; before treatment 3%
[1] = tested on: p53 mutant His175 in H1299 lung carcinoma cells; details: 24 h incubation
Description: (§1) The general methods used in the examples set forth below are described in detail in Bykov et al., Nature Med 8, 282-288 (2002) which is herein incorporated by reference.
Lung carcinoma cells H1299 transfected with His175 p53 mutant and parental nontransfected cells were treated with the amounts of peptide indicated below, incubated for 24 h and tested for p53, p21, and Mdm-2 protein expression. […] The treatment with peptide was performed either with or without Lipofectamine.

H1299-His175 cells = assay: Dead cells by trypan blue exclusion; type: cell-based; details: 10 μg/mL peptide, 24 h; before treatment 5%
[2] = tested on: H1299 cells containing p53 R175H; assay: Distribution of FL-CDB3 in cells (fluorescence microscopy); type: cell-based; details: without Lipofectamine
Description: The results can be seen in FIG. 8.
Top left: H1299 cells containing p53 R 175H. […] The peptide remained visible for at least 48 h.

[3] = tested on: wtp53 in colon carcinoma HCT116 cells; assay: Western blot of induced protein expression; type: cell-based; details: 24 h, 10 μg/mL FL-CDB3
[4] = molecular target: wild-type p53 core domain (94-312) (Homo sapiens, UniProt P04637); details: increasing urea concentrations
p53 core domain [5] = molecular target: T1, p53 core domain (Homo sapiens, UniProt P04637); details: Gadd45 DNA 5-25 μM
HCTp53-/- cells = assay: Western blot of induced protein expression; type: cell-based; details: 24 h, 10 μg/mL FL-CDB3
p53 mutant His273 = details: 24 h incubation, 1-10 μg/mL FL-CDB3
[6] = molecular target: T2, wild-type p53 core domain (Homo sapiens, UniProt P04637); assay: Differential scanning calorimetry (apparent Tm); type: binding; details: HEPES buffer pH 7.2, 1 mM DTT; 40.1° C. without peptide
T2 construct: human p53 core domain wild-type and mutants (residues 94-312); made in house
Description: Differential Scanning Calorimetry may also be used to detect and/or quantify binding. Differential Scanning Calorimetry may be performed using methods known to those skilled in the art. In a suitable example, DSC experiments are performed using a Microcal VP-DSC microcalorimeter (Microcal, Amherst, Mass.). Temperatures from 5 to 95° C. are scanned at a rate of 60 deg/h, using a HEPES buffer pH 7.2, 1 mM DTT, which also served for baseline measurements. […] A pressure of 25 psi […] is applied to the cell. The data is analysed using Origin software (Microcal).
The thermal denaturation of p53 core domain is irreversible, and thus only an apparent melting temperature (Tm) can be determined (Bullock et al., 1997), but increase in stability can be correlated with increase in the apparent Tm. All DSC measurements are carried out in HEPES buffer pH 7.2, 1 mM DTT.

[7] = tested on: control Saos-2 (p53 null) cells; details: 10 μg/mL peptide, 24 h; before treatment 3%
Description: as §1
(§2) Tumour cells were treated with 10 μg/mL of peptide and analysed the cell cycle distribution and cell death (as subG1 fraction) 24 h post treatment using FACS analysis.

[8] = tested on: control H1299 (p53 null) cells; details: 10 μg/mL peptide, 24 h; before treatment 3%
Description: as §1, §2

p53 core domain [9] = molecular target: T1, p53 core domain; assay: BIAcore binding of p53 core domain to immobilised biotinylated CDB3 (half saturation concentration); parameters: human p53 core domain wild-type and mutants (residues 94-312); made in house
Excerpt: Surface plasmon resonance measurements may be performed using a BIAcore 2000 using methods familiar to those skilled in the art. For example, it may be equipped with a sensor chip SA (BIAcore AB, Uppsala, Sweden) both to screen the polypeptide for binding of stabilising molecule and to quantify the binding of the stabilising molecule to the polypeptide. […] Biotinylated stabilising molecules such as CDB peptides may be immobilised and the binding of the polypeptide (in this case p53) can therefore be studied.
All immobilisation as well as binding measurements may be performed at 10° C. with 50 mM HEPES, pH 7.2, 5 mM DTT, as running buffer, using a sample frequency of 1 Hz. The streptavidin surface of the chip can be activated with […] NaOH, 1 M NaCl, in three cycles of 1 min, 20 μL/min, before the immobilization of peptides. The biotinylated peptides may be dissolved to a final concentration of 1.5-4.0 mM (in buffer as above with addition of 0.13 M NaCl) and can be immobilised at a flow rate of 5 μL/min until the level of saturation is reached. In the above Example Flow cell 1 can be used as a background for the change in bulk refractive index.
The binding association is measured for 5 min at 30 μL/min, […], in the buffer described above (no salt added). […]
Surface plasmon resonance can be used to measure the CDB3-p53 core domain binding constant quantitatively. […]

p53 core domain [10] = molecular target: T1, p53 core domain; assay: Anisotropy competition with fluorescein-labeled CDB3; details: solution measurements
[11] = molecular target: T3, p53 core domain mutant I195T (Homo sapiens, UniProt P04637, I195T); assay: Restoration of sequence-specific DNA binding (fluorescein-labelled Gadd45 DNA, anisotropy); type: biochemical; details: CDB3 100 μM
T3 construct: human p53 core domain wild-type and mutants (residues 94-312); made in house

tumour cells = assay: FACS analysis of cell cycle distribution and cell death (subG1); type: cell-based; details: 10 μg/mL, 24 h
[12] = molecular target: T2, wild-type p53 core domain; assay: DNA binding in presence of peptide (Gadd45 DNA); type: biochemical
p53 core domain [13] = molecular target: T1, p53 core domain; assay: Refolding of urea-denatured p53 core domain by fluorescence anisotropy; type: biochemical; parameters: human p53 core domain wild-type and mutants (residues 94-312); made in house; details: 3 M urea, 10° C.
Excerpt: Upon mixing the peptide with p53 core domain a rapid binding event takes place, leading to the formation of a FL-CDB3-p53 core domain complex. […] There is an increase in the anisotropy over time, as the peptide induced protein refolding by mass action (FIG. 6d). […] Urea weakened the binding to the native structure so that the stabilising effects in 3 M urea are not as pronounced as they would be in water alone.

[14] = molecular target: T3, p53 core domain mutant I195T; assay: Binding to random double stranded DNA sequence in presence of peptide; type: biochemical
Excerpt: To confirm that the restoration of DNA binding is sequence-specific, we repeated the experiments with the random double stranded DNA sequence fluorescein-[…] […].

p53 = p53 (Homo sapiens, UniProt P04637); assay: Stabilisation of active conformations of p53 (no method given)

Compound: CC[C@H](C)[C@H](NC(=O)[C@H](CCC(=O)O)NC(=O)[C@H](CC(=O)O)NC(=O)[C@H](CCC(=O)O)NC(=O)[C@H](CC(=O)O)NC(=O)[C@H](CCC(=O)O)NC(=O)[C@H](CCCNC(=N)N)NC(=O)c1ccc2c(c1)C(=O)OC21c2ccc(O)cc2Oc2cc(O)ccc21)C(=O)N[C@@H](CCC(=O)O)C(=O)N[C@@H](Cc1c[nH]c2ccccc12)C(N)=O [FL-CDB3]
- dead cells after treatment (Saos-2-His273 cells): 28%
- mutant p53 levels [1]: remarkably increased
- p21 and Mdm-2 protein expression ([1]; 10 μg/mL FL-CDB3): restored the ability of p53 mutants His175 and His273 to activate the transcription of endogenous genes p21 and Mdm-2
- dead cells after treatment (H1299-His175 cells): 37%
- penetration into cells [2]: able to penetrate inside the cells by itself
- Mdm-2 and p21 expression [3]: activates expression of Mdm-2 and p21
- dependence of binding on urea concentration [4]: binding weakened with increasing urea concentrations
- displacement of peptide from p53 core domain by DNA (p53 core domain [5]): displaced the peptide completely
- p21 and Mdm-2 induction (HCTp53-/- cells): No induction of p21 nor Mdm-2
- p21 and Mdm-2 protein expression (p53 mutant His273): restored the ability of p53 mutants His175 and His273 to activate the transcription of endogenous genes p21 and Mdm-2
- apparent Tm of wild-type core domain in presence of peptide [6]: 41.6 °C
- dead cells after treatment [7]: 13%
- dead cells after treatment [8]: 11%

- Kd (p53 core domain [9]; biotinylated CDB3 immobilized on SA sensor chip, read-out: concentration of p53 core domain for 50% binding): ~200 nM
- Kd (p53 core domain [9]; immobilized peptide, half saturation concentration by BIAcore, read-out: Kd): 200 nM and ~200 nM
- improvement of affinity compared to the unlabeled peptide (p53 core domain [10]): three-fold
Compound: CC[C@H](C)[C@H](NC(=O)[C@H](CCC(=O)O)NC(=O)[C@H](CC(=O)O)NC(=O)[C@H](CCC(=O)O)NC(=O)[C@H](CC(=O)O)NC(=O)[C@H](CCC(=O)O)NC(=O)[C@H](CCCNC(=N)N)NC(=O)CCCC[C@@H]1SC[C@@H]2NC(=O)N[C@@H]21)C(=O)N[C@@H](CCC(=O)O)C(=O)N[C@@H](Cc1c[nH]c2ccccc12)C(N)=O [biotinylated CDB3]

- improvement of I195T binding to Gadd45 DNA [11]: six fold
- effect on DNA binding of wild-type p53 core domain [12]: did not affect DNA binding
- refolding of p53 core domain (p53 core domain [13]): induced refolding of p53 core domain
- effect on binding of I195T to random DNA sequence [14]: not improved, but rather inhibited
Compound: CC[C@H](C)[C@H](NC(=O)[C@H](CCC(=O)O)NC(=O)[C@H](CC(=O)O)NC(=O)[C@H](CCC(=O)O)NC(=O)[C@H](CC(=O)O)NC(=O)[C@H](CCC(=O)O)NC(=O)[C@@H](N)CCCNC(=N)N)C(=O)N[C@@H](CCC(=O)O)C(=O)N[C@@H](Cc1c[nH]c2ccccc12)C(N)=O [CDB3]
- penetration into cells [2]: able to penetrate inside the cells by itself
- apoptosis (tumour cells): induces apoptosis in tumour cells in p53-dependent manner
- growth arrest (tumour cells): no growth arrest was detected

Compound: COc1ccc(/C=C/c2nc(NCCCN(C)C)c3ccccc3n2)cc1 [CP-31398]
- stabilisation of active conformations of p53 (p53): does not in fact work to stabilise active conformations of p53
